In the assay the test system is splenocytes (glatiramer specific T cells). The experiment in a line: Ex-vivo testing in CJSL mice: cytokine secretion by splenocytes activated in vitro with GA RS after daily feeding. Further details: key: BQL: Below Quantifiable Limit; BDL: Below Detectable Limit; AQL: Above Quantifiable Limit. As to conditions: 50 μg/ml GA RS in-vitro. The protocol:
Studies were conducted to test the potential properties of the mixture of polypeptides of the invention. In particular, the studies were to determine whether the mixture of polypeptides of the invention would elicit an immune response with similar cytokine patterns as those elicited by glatiramer acetate when tested in an ex-vivo model in mice.
Beginning on Day 0, groups of 4 CJSL Mice were fed daily with GA reference standard (GA RS, 12.5 μg/kg). Glatiramer Tannate (amount equivalent to 18.75 μg/kg), tannic acid (negative control, in an amount equivalent to the tannate administered to the 18.75 μg/kg glatiramer tannate group) or phosphate buffered saline (PBS—placebo control). During period of study, subsets of mice in each treatment group were sacrificed on days 4, 7 and 11. Spleens were excised and primary cell cultures were prepared. The effect of the treatment was tested by in-vitro activation of splenocytes with GA RS 50 μg/ml. The response of the cells to the challenge is a measure of previous exposure to Glatiramer and the generation of glatiramer specific T cells. T-cell response was monitored by detection of cytokines secreted from activated cells by ELISA analysis. The levels of IL-2, IL-3 and IL-5 cytokines were examined.

Setting [1] is: glatiramer dose NA (tannic acid equivalent to the tannate of the 18.75 group) daily oral, day of treatment 4.
The mark [2] stands for this setting: glatiramer dose NA (tannic acid equivalent to the tannate of the 18.75 group) daily oral, day of treatment 7.
Setting [3] is: glatiramer dose NA (tannic acid equivalent to the tannate of the 18.75 group) daily oral, day of treatment 11.
Setting [4] is: glatiramer treatment dose 12.5 Mg/kg daily oral, day of treatment 4.
Setting [5] is: glatiramer treatment dose 12.5 Mg/kg daily oral, day of treatment 7.
[6] abbreviates: glatiramer treatment dose 12.5 Mg/kg daily oral, day of treatment 11.

Take `O=C(OC[C@H]1O[C@@H](OC(=O)c2cc(O)c(O)c(OC(=O)c3cc(O)c(O)c(O)c3)c2)[C@H](OC(=O)c2cc(O)c(O)c(OC(=O)c3cc(O)c(O)c(O)c3)c2)[C@@H](OC(=O)c2cc(O)c(O)c(OC(=O)c3cc(O)c(O)c(O)c3)c2)[C@@H]1OC(=O)c1cc(O)c(O)c(OC(=O)c2cc(O)c(O)c(O)c2)c1)c1cc(O)c(O)c(OC(=O)c2cc(O)c(O)c(O)c2)c1` [Tannic Acid, tannic acid]: under setting [1], the IL-2 secretion entry is given as “BQL”, the IL-3 secretion result is given as “BQL” and the IL-5 secretion entry is reported as “BDL”. Moreover, under setting [2], the IL-2 secretion came to 26.7 pg/mL, the IL-3 secretion was found to be 76.9 pg/mL and the IL-5 secretion result is “BQL”. Under setting [3], the IL-2 secretion came out at 16.6 pg/mL, the IL-3 secretion is 63.2 pg/mL and the IL-5 secretion result was “BQL”.

As to “L-glutamic acid polymer with L-alanine, L-lysine and L-tyrosine, acetate (salt) [GA]”, under setting [4], the IL-2 secretion result is “BQL”, the IL-3 secretion result is recorded as “BQL” and the IL-5 secretion entry is on record as “BDL”. In addition, under setting [5], the IL-2 secretion is 121.5 pg/mL, the IL-3 secretion stood at 456.5 pg/mL and the IL-5 secretion entry was “BQL”. Also, under setting [6], the IL-2 secretion is 119.0 pg/mL, the IL-3 secretion came out at 701.6 pg/mL and the IL-5 secretion result is recorded as “BQL”.

Values taken from patent US20080118553A1, “Tannate salt form of polypeptide mixtures, their preparation and use” (priority 2006, published 2008).
